From the supplement of paper PMC10307832

Compound: NCC(=O)Nc1ccc(-n2nc(C(F)(F)F)cc2-c2ccc3c(ccc4ccccc43)c2)cc1 + CC(=O)c1c(C)c2cnc(Nc3ccc(N4CCNCC4)cn3)nc2n(C2CCCC2)c1=O [Palbociclib] (partner 0.5 µM)
Test: relative viability (nuclei count vs DMSO), 5 days (fraction); higher = more cells survive
Conditions: first compound 0.2 µM
Procedure, shortened: (§1)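 Lung cancer cell lines, seeded in 1536-well plates, were treated the following day by pin tool with a single drug or with five library-drug doses (not always all listed) in √10 steps on top of a fixed anchor-drug dose. Cells were fixed and nuclei stained in one step after 5 days, and nuclei were counted. Relative viability is the nuclei count for treated wells divided by that for vehicle wells, reported as medians of duplicate plates.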

Row | Cell Line | relative viability
1 | NCI-H2347 | 0.448
2 | SK-LU-1 | 0.404
3 | NCI-H1395 | 0.617
4 | 201T | 0.366
5 | NCI-H1915 | 0.517
6 | HCC-827 | 0.509
7 | LXF-289 | 0.59
8 | NCI-H23 | 0.535
9 | NCI-H647 | 0.564
10 | CAL-12T | 0.462
11 | NCI-H1651 | 0.497
12 | EPLC-272H | 0.36
13 | NCI-H2228 | 0.802
14 | NCI-H1792 | 0.696
15 | NCI-H1355 | 0.393
16 | NCI-H3122 | 0.179
17 | NCI-H1437 | 0.3
18 | NCI-H1755 | 0.448
19 | NCI-H2023 | 0.391
20 | HCC-15 | 0.763
21 | NCI-H1793 | 0.337

Same assay, conditions: first compound 0.6325 µM

Row | Cell Line | relative viability
22 | NCI-H2342 | 0.494
23 | NCI-H727 | 0.72
24 | NCI-H1650 | 0.319
25 | NCI-H1993 | 0.696
26 | SW 1573 | 0.384
27 | NCI-H838 | 0.192
28 | LCLC-103H | 0.413
29 | NCI-H520 | 0.193
30 | NCI-H2126 | 0.385
31 | EMC-BAC-2 | 0.518
32 | NCI-H2085 | 0.469
33 | HCC-366 | 0.394
34 | NCI-H1666 | 0.616
35 | LK-2 | 0.675
36 | NCI-H2087 | 0.249
37 | NCI-H1648 | 0.281
38 | SK-MES-1 | 0.325
39 | H3255 | 0.322
40 | COR-L23 | 0.261
41 | COR-L 105 | 0.413
42 | LOU-NH91 | 0.541

Row | Cell Line | relative viability
43 | ChaGo-K-1 | 0.973
44 | NCI-H2170 | 0.38
45 | NCI-H2405 | 0.515
46 | HOP-62 | 0.452
47 | HCC-44 | 0.977
48 | NCI-H522 | 0.934
49 | LU99A | 0.487
50 | BEN | 0.49
51 | HARA | 0.294
52 | SW 900 | 0.535
53 | HCC-78 | 0.403
54 | NCI-H322M | 0.505
55 | LCLC-97TM1 | 0.233
56 | NCI-H2009 | 0.186
57 | A-427 | 0.526
58 | NCI-H441 | 0.228
59 | NCI-H661 | 0.416
60 | NCI-H1734 | 0.333
61 | NCI-H460 | 0.171
62 | NCI-H2347 | 0.473
63 | SK-LU-1 | 0.372

Row | Cell Line | relative viability
64 | NCI-H1395 | 0.621
65 | 201T | 0.363
66 | NCI-H1915 | 0.507
67 | HCC-827 | 0.486
68 | LXF-289 | 0.588
69 | NCI-H23 | 0.507
70 | NCI-H647 | 0.294
71 | CAL-12T | 0.588
72 | NCI-H1651 | 0.539
73 | EPLC-272H | 0.335
74 | NCI-H2228 | 0.653
75 | NCI-H1792 | 0.591
76 | NCI-H1355 | 0.408
77 | NCI-H3122 | 0.206
78 | NCI-H1437 | 0.341
79 | NCI-H1755 | 0.471
80 | NCI-H2023 | 0.345
81 | HCC-15 | 0.742
82 | NCI-H1793 | 0.339
83 | PC-14 | 0.524

Same assay, conditions: first compound 2 µM

Row | Cell Line | relative viability
84 | NCI-H2342 | 0.523
85 | NCI-H727 | 0.682
86 | NCI-H1650 | 0.343
87 | NCI-H1993 | 0.706
88 | SW 1573 | 0.36
89 | NCI-H838 | 0.213
90 | LCLC-103H | 0.504
91 | NCI-H520 | 0.258
92 | NCI-H2126 | 0.327
93 | EMC-BAC-2 | 0.532
94 | NCI-H2085 | 0.473
95 | HCC-366 | 0.355
96 | NCI-H1666 | 0.624
97 | LK-2 | 0.636
98 | NCI-H2087 | 0.24
99 | NCI-H1648 | 0.264
100 | SK-MES-1 | 0.387
101 | H3255 | 0.304
102 | COR-L23 | 0.245
103 | COR-L 105 | 0.432
104 | LOU-NH91 | 0.582

Row | Cell Line | relative viability
105 | ChaGo-K-1 | 0.917
106 | NCI-H2170 | 0.355
107 | NCI-H2405 | 0.517
108 | HOP-62 | 0.545
109 | HCC-44 | 0.962
110 | NCI-H522 | 0.992
111 | LU99A | 0.438
112 | BEN | 0.465
113 | HARA | 0.256
114 | SW 900 | 0.641
115 | HCC-78 | 0.496
116 | NCI-H322M | 0.493
117 | LCLC-97TM1 | 0.199
118 | NCI-H2009 | 0.272
119 | A-427 | 0.534
120 | NCI-H441 | 0.25
121 | NCI-H661 | 0.433
122 | NCI-H1734 | 0.356
123 | NCI-H460 | 0.2
124 | NCI-H2347 | 0.419
125 | SK-LU-1 | 0.434

Row | Cell Line | relative viability
126 | NCI-H1395 | 0.614
127 | 201T | 0.351
128 | NCI-H1915 | 0.541
129 | HCC-827 | 0.504
130 | LXF-289 | 0.628
131 | NCI-H23 | 0.553
132 | NCI-H647 | 0.402
133 | CAL-12T | 0.423
134 | NCI-H1651 | 0.541
135 | EPLC-272H | 0.326
136 | NCI-H2228 | 0.656
137 | NCI-H1792 | 0.66
138 | NCI-H1355 | 0.405
139 | NCI-H3122 | 0.155
140 | NCI-H1437 | 0.307
141 | NCI-H1755 | 0.434
142 | NCI-H2023 | 0.297
143 | HCC-15 | 0.749
144 | NCI-H1793 | 0.363
145 | PC-14 | 0.46

Compound: NCC(=O)Nc1ccc(-n2nc(C(F)(F)F)cc2-c2ccc3c(ccc4ccccc43)c2)cc1 + O=C(c1cc(Cc2n[nH]c(=O)c3ccccc23)ccc1F)N1CCN(C(=O)C2CC2)CC1 [Olaparib] (partner 8 µM)
Test: as above
Conditions: first compound 0.02 µM
Procedure, shortened: as §1

Row | Cell Line | relative viability
146 | NCI-H2342 | 0.623
147 | NCI-H727 | 0.504
148 | NCI-H1650 | 0.802
149 | EBC-1 | 0.693
150 | NCI-H1703 | 0.498
151 | NCI-H1993 | 1.01
152 | SW 1573 | 0.554
153 | NCI-H838 | 0.853
154 | LCLC-103H | 0.685
155 | NCI-H520 | 0.404
156 | NCI-H2126 | 0.864
157 | EMC-BAC-2 | 0.433
158 | NCI-H2085 | 0.853
159 | Calu-6 | 0.568
160 | HCC-366 | 0.351
161 | NCI-H1666 | 0.734
162 | NCI-H596 | 0.627
163 | LK-2 | 0.758
